{"source": "paper PMC12693327", "about": "“SERAAK2 as a Serotonin Receptor Ligand: Structural and Pharmacological In Vitro and In Vivo Evaluation” (Molecules, 2025)", "key": {"mice [1]": {"system": "mice", "experiment": "Amphetamine-induced hyperactivity", "type": "in vivo", "details": "amphetamine 3 mg/kg, vs saline-treated group, p < 0.05", "procedure": "The investigated compound (SER2AAK2) was bought from Enamine (purity over 95%) and in all tests was administered intraperitoneally (i.p.), spread in a drop of Tween 80, and diluted with an aqueous solution of 0.5% methylcellulose (tylose) and injected 60 min before the tests in a volume of 10 mL/kg. Control groups received tylose injections of the same volume and via the same route of administration.\nLocomotor activity of the mice was assessed using the Opto-Varimex-4 Auto-Track system (Columbus Instruments, OH, USA). Each mouse was placed individually in a testing cage for 25 min—5 min for acclimatization, followed by 20 min of activity recording. (6a) The total distance traveled (in centimeters) was measured. Cages were cleaned with 10% ethanol between sessions."}, "mice [2]": {"system": "mice", "design": "method as in PMID 40430337", "details": "30 mg/kg; cited from earlier work"}, "mice [3]": {"system": "mice", "design": "method as in PMID 40430337", "details": "30 mg/kg; cited from earlier work", "remark": "listed apart in the source"}, "mice [4]": {"system": "mice", "design": "method as in PMID 40430337", "details": "30–60 mg/kg, rotarod and chimney; cited from earlier work"}, "CYP2D6": {"target": "CYP2D6 (Homo sapiens, UniProt P10635)", "sequence (P10635 whole entry)": "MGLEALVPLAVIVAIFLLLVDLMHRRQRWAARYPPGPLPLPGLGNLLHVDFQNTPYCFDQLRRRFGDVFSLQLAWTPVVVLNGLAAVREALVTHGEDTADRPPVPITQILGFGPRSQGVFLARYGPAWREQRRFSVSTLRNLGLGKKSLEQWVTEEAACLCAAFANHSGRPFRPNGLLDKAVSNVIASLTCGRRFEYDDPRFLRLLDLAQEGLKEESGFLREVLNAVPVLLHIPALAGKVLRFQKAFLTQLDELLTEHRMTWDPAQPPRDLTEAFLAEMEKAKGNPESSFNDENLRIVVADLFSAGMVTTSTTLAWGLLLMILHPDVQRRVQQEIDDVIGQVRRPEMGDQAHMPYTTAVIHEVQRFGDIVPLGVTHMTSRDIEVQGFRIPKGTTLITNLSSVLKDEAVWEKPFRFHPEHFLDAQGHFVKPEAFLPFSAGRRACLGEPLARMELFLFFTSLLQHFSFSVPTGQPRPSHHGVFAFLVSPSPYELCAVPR", "design": "purchased Promega; method as in PMID 40430337", "details": "cited from earlier work"}, "CYP3A4": {"target": "T1, CYP3A4 (Homo sapiens, UniProt P08684)", "T1 construct": "purchased Promega", "T1 sequence (P08684 whole entry)": "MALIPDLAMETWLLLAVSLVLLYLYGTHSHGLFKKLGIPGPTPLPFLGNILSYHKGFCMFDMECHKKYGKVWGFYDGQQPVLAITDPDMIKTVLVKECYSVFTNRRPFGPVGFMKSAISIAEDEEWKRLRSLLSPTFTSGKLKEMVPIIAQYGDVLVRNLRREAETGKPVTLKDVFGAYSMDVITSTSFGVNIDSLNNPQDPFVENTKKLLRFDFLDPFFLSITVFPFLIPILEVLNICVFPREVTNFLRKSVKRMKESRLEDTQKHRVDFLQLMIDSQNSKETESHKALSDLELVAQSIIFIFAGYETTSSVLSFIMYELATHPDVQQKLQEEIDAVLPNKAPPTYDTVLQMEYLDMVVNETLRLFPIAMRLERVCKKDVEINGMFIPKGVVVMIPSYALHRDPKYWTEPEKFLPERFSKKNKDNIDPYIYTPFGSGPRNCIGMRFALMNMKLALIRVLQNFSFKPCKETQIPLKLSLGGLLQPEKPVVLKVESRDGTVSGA", "design": "method as in PMID 40430337", "details": "cited from earlier work"}, "mice [5]": {"system": "mice", "design": "method as in PMID 40430337", "details": "30 mg/kg; cited from earlier work", "remark": "listed apart in the source"}, "[6]": {"design": "method as in PMID 40430337", "details": "cited from earlier work"}, "mice [7]": {"system": "mice", "design": "method as in PMID 40430337", "details": "30–60 mg/kg; cited from earlier work"}, "SH-SY5Y cells": {"system": "SH-SY5Y cells", "experiment": "MTS cytotoxicity assay in SH-SY5Y cells", "type": "cell-based, human", "details": "30 µM, 72 h", "procedure": "The cytotoxic potential of SERAAK2 was evaluated in two human-derived cell lines chosen for their physiological relevance: HepG2 (hepatocellular carcinoma) and SH-SY5Y (neuroblastoma). […] It is particularly noteworthy that the use of the SERAAK2 compound at a concentration of 30 µM reduces the number of viable cells below the level of the positive control (doxorubicin) at the same concentration (Table 3). […] Under the experimental conditions used, after 72 h of incubation, a fraction of doxorubicin-treated cells remains metabolically active and generates a low signal in the MTS assay. The enhanced signal reduction observed in the MTS assay for the tested compound, compared to doxorubicin, indicates strong cytotoxic activity leading to necrosis of the entire cell population.\nAn assessment of the cytotoxic potential of SERAAK2 was carried out utilizing the colorimetric MTS assay. This investigation was executed on both HepG2 and SH-SY5Y cell lines, adhering to an identical procedure. The cell lines, sourced from the American Type Culture Collection (Manassas, VA, USA), were cultured under standard conditions (5% CO2, 37 °C) in DMEM/F12 medium (#31330-038, ThermoFisher Scientific, Waltham, MA, USA). The medium was supplemented with 10% Fetal Bovine Serum (FBS, #A5256801, ThermoFisher Scientific) and a Penicillin–Streptomycin solution (#15140-122, ThermoFisher Scientific) until their use in the study. Cells within passage numbers 15 to 25 were plated in 96-well plates at a density of 5000 cells per well in 200 μL of medium and allowed to adhere during a 24 h incubation at 37 °C with 5% CO2. […] The plates were then subsequently returned to the 37 °C incubator, after which absorbance was recorded with a Spark microplate reader; this measurement occurred after 1 h for the HepG2 line and 3 h for the SH-SY5Y line. The ultimate cell viability percentage was determined by comparing results to the control wells, which represented 100% viability, and the wells treated with 10 μM doxorubicin, which were defined as 0% viability. […]"}}}
{"smiles": "CC(N)Cc1ccccc1", "note": "(stereo not shown) [amphetamine, reference compound]", "values": [{"measurement": "locomotor activity after amphetamine alone", "setting": "mice [1]", "value": "significantly increased the locomotor activity"}]}
{"smiles": "OC(COC(c1ccccc1)c1ccccc1)CN1CCN(C(c2ccccc2)c2ccccc2)CC1", "note": "(stereo not shown) [SERAAK1]", "values": [{"measurement": "Forced swim test (FST), immobility", "setting": "mice [2]", "value": "↓ immobility (30 mg/kg)—antidepressant-like effect connected with serotonergic modulation"}, {"measurement": "Elevated plus maze (EPM), open arm time and entries", "setting": "mice [3]", "value": "↑ open arm time and entries (30 mg/kg)—anxiolytic effect"}, {"measurement": "Motor coordination (rotarod, chimney)", "setting": "mice [4]", "value": "no impairment (30–60 mg/kg)—stable motor profile"}, {"measurement": "IC50", "setting": "CYP2D6", "value": 720, "unit": "nM"}, {"measurement": "CYP3A4 induction (increase of activity)", "setting": "CYP3A4", "value": 3.5, "unit": "fold"}, {"measurement": "amphetamine-induced hyperactivity", "setting": "mice [5]", "value": "↓ hyperactivity (30 mg/kg)"}, {"measurement": "Pe (PAMPA)", "setting": "[6]", "value": "< 1e-08", "unit": "cm/s"}, {"measurement": "Spontaneous locomotor activity", "setting": "mice [7]", "value": "no change (30–60 mg/kg)"}]}
{"smiles": "COc1cccc2c1C(=O)c1c(O)c3c(c(O)c1C2=O)C[C@@](O)(C(=O)CO)C[C@@H]3O[C@H]1C[C@H](N)[C@H](O)[C@H](C)O1", "note": "[DOX, Doxorubicin, reference compound]", "values": [{"measurement": "Percentage Reduction in the Number of Viable SH-SY5Y Cells [Mean ± SEM]", "setting": "SH-SY5Y cells", "value": "102 ± 1", "unit": "%"}]}
